This is an account of results in publication PMC3639963, “A New Class of Small Molecule Inhibitor of BMP Signaling” (PLoS ONE, 2013).

Common to all, as to experiment: Nanosyn kinase profiling
Common to all, as to assay type: biochemical
What all share (details): read-out: Percentage inhibition; for inhibition at 0.1 µM: 0.1 µM inhibitor; for inhibition at 1 µM: 1 µM inhibitor

Test [1] addresses T1, CAMK2δ (Homo sapiens, UniProt Q13557).
T1 construct: purchased Nanosyn (enzymatic panel); SGC in-house recombinant human kinases (DSF panel); Invitrogen (ALK1-6)
An outline of the steps:
(§1)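 Percent inhibition of each kinase was measured with the inhibitor at 0.1 µM and at 1 µM, as part of a 200-kinase human selectivity panel.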

The target in test [2] is T2, CDK4/cycD (Homo sapiens, UniProt P11802).
T2 construct: purchased Nanosyn (enzymatic panel); SGC in-house recombinant human kinases (DSF panel); Invitrogen (ALK1-6)
In outline:
as §1

Test [3] concerns the target T3, FGFR1 (Homo sapiens, UniProt P11362).
T3 construct: purchased Nanosyn (enzymatic panel); SGC in-house recombinant human kinases (DSF panel); Invitrogen (ALK1-6)
In outline: as §1

For test [4], the target named is T4, ITK (Homo sapiens, UniProt Q08881).
T4 construct: purchased Nanosyn (enzymatic panel); SGC in-house recombinant human kinases (DSF panel); Invitrogen (ALK1-6)
T4 sequence (Q08881 1-620): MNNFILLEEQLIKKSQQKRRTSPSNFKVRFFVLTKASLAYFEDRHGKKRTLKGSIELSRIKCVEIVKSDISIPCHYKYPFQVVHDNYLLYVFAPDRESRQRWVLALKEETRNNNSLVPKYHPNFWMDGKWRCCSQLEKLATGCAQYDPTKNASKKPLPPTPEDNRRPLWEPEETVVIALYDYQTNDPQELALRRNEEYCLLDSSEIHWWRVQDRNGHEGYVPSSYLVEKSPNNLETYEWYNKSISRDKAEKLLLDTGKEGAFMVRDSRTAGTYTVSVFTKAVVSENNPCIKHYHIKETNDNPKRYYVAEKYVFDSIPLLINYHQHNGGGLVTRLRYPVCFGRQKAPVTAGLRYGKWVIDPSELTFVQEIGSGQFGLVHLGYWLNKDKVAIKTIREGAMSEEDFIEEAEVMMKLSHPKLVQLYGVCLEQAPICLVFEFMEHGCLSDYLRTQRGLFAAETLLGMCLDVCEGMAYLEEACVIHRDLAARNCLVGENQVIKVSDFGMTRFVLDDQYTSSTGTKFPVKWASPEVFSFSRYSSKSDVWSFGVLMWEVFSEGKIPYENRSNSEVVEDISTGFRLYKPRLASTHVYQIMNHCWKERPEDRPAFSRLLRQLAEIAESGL
An outline of the steps: as §1

Test [5] deals with T5, P38γ (Homo sapiens, UniProt P53778).
T5 construct: purchased Nanosyn (enzymatic panel); SGC in-house recombinant human kinases (DSF panel); Invitrogen (ALK1-6)
T5 sequence (P53778 1-367): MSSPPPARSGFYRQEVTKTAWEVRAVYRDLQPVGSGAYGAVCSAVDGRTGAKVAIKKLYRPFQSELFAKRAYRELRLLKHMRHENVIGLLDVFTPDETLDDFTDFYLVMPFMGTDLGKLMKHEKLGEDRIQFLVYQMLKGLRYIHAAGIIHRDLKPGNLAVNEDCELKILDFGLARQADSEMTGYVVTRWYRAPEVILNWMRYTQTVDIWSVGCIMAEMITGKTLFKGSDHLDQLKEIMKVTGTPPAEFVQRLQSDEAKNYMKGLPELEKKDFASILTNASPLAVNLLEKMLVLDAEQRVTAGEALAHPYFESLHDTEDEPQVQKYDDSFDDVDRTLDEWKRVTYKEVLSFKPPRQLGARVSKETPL
An outline of the steps: as §1

Test [6] addresses T6, PRAK (Homo sapiens, UniProt Q8IW41).
T6 construct: purchased Nanosyn (enzymatic panel); SGC in-house recombinant human kinases (DSF panel); Invitrogen (ALK1-6)
T6 sequence (Q8IW41 1-473): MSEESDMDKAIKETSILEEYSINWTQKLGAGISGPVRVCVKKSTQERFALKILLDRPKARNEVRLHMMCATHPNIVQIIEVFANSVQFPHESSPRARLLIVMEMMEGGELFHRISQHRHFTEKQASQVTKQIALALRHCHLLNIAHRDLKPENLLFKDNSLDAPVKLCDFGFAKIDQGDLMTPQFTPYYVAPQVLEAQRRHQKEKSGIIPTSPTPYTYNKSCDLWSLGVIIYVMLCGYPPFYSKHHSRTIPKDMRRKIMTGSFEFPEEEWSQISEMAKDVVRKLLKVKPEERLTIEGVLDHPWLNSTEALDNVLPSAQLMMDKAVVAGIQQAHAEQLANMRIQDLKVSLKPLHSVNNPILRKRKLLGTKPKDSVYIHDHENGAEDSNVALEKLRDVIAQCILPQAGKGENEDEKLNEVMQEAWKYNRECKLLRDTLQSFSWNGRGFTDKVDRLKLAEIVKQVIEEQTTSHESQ
In outline: as §1

Test [7] deals with T7, PRKG1 (Homo sapiens, UniProt Q13976).
T7 construct: purchased Nanosyn (enzymatic panel); SGC in-house recombinant human kinases (DSF panel); Invitrogen (ALK1-6)
T7 sequence (Q13976 1-671): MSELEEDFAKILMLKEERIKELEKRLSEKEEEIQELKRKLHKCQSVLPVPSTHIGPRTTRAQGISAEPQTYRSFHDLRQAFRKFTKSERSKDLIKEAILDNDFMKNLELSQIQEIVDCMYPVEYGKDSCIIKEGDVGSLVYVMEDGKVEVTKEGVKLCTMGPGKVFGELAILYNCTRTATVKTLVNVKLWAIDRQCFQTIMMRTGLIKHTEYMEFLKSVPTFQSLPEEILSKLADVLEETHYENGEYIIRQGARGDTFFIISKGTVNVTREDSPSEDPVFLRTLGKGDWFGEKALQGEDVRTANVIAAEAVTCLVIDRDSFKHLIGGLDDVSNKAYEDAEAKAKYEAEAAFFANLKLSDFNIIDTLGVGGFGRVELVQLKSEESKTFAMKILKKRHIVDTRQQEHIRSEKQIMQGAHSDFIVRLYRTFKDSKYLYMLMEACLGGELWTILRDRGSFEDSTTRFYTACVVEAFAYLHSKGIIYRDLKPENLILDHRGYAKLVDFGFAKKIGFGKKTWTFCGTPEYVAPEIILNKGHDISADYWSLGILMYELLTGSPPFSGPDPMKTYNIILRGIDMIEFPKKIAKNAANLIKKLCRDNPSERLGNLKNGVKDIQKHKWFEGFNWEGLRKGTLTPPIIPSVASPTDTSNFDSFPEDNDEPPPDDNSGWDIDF
An outline of the steps: as §1

T1 sequence (Q13557 whole entry): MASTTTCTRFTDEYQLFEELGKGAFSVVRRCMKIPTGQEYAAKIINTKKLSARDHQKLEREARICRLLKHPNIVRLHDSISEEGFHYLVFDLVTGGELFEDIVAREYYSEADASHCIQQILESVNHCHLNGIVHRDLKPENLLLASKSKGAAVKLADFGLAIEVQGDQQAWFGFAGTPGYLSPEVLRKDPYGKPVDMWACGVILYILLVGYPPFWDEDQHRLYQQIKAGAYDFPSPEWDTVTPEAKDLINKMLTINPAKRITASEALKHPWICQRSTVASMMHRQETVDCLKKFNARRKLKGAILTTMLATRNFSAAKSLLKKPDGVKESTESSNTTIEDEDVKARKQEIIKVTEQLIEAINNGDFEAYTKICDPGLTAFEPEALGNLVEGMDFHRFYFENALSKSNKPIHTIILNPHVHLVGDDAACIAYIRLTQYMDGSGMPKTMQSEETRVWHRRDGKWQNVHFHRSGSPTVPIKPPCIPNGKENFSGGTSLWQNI
T2 sequence (P11802 whole entry): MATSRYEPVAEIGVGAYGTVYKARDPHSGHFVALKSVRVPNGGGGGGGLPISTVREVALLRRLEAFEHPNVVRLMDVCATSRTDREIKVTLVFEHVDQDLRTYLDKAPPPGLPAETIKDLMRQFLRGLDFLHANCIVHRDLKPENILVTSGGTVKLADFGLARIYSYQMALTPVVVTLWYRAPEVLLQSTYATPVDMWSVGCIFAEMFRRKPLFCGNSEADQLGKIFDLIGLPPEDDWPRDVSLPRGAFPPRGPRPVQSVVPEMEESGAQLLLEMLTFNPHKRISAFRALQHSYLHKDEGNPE
T2 sequence (P24385 whole entry partner): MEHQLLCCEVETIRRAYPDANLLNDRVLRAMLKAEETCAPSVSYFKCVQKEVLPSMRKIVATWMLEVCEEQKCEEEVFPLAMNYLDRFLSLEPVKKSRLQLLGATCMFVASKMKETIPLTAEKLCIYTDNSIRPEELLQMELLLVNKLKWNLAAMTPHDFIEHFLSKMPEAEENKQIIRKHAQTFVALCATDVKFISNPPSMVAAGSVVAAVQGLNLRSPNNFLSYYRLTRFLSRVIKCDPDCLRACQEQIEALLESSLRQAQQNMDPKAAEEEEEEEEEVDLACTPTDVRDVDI
T3 sequence (P11362 22-822): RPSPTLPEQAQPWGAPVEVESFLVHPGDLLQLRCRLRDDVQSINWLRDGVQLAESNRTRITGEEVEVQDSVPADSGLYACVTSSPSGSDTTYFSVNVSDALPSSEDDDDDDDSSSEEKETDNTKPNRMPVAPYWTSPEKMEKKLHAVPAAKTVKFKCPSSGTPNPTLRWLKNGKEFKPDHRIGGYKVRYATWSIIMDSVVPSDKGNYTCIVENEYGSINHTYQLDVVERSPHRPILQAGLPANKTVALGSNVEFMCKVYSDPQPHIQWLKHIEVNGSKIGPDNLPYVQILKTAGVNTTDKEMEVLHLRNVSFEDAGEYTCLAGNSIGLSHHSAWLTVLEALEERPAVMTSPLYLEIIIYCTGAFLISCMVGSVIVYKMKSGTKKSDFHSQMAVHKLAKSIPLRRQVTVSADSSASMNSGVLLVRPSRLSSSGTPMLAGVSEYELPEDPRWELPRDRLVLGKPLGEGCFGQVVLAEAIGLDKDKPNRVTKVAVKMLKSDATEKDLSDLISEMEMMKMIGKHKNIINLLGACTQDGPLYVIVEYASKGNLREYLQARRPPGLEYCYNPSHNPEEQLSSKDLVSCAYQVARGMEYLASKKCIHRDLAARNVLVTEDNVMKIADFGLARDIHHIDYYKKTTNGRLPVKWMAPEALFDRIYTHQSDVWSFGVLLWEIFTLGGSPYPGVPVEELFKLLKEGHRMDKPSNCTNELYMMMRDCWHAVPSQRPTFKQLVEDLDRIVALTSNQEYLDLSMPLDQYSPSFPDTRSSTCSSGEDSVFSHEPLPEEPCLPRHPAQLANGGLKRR

For `COc1cc(-c2cc(-c3cccc(O)c3)cnc2N)cc(OC)c1OC` [K02288, 3-[6-amino-5-(3,4,5-trimethoxy-phenyl)-pyridin-3-yl]-phenol], the inhibition – broadly, the relative decrease from the control value, in per cent – at 0.1 µM in test [1] is -1%; in test [2], 0.1%; in test [3], -1%; in test [4], 0%; in test [5] it was -1%; in test [6] it was 0%. Also, the inhibition at 0.1 µM in test [7] is 0.3%. Also, the inhibition at 1 µM was 1.4% in test [1]; 1.3% in test [2]; -3% in test [3]; 0% in test [4]; -1% in test [5]; 0% in test [6]. Besides, the inhibition at 1 µM in test [7] is 3.3%.

Take `c1ccc2c(-c3cnn4cc(-c5ccc(N6CCNCC6)cc5)cnc34)ccnc2c1` [LDN-193189]: the inhibition at 0.1 µM in test [1] worked out at 3.1%; in test [2] it was 0.8%; in test [3] it was 3.4%; in test [4], 0.9%; in test [5], 1.2%; in test [6] it was 0.8%. The inhibition at 0.1 µM in test [7] amounted to 1%. For the same compound, the inhibition at 1 µM in test [1] worked out at 8.7%; in test [2] it was 8.3%; in test [3], 19%; in test [4], 3.6%; in test [5], 1.3%; in test [6], 0.1%. The inhibition at 1 µM in test [7] was 1.2%.
